# According to US8742106B2 (Novartis AG, priority 2009, dated 2014):
# Experiments:
# [1] = target: T1, human orexin 2 receptors (Homo sapiens (Human), UniProt O43614); test: Calcium Accumulation in Cells (FLIPR), antagonism of orexin A; assay type: cell-based; details: antagonism of orexin A, Cheng-Prusoff corrected; read-out: FLIPR hOx2R Ki
# How it was run: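 Cells expressing human orexin 2 receptor, loaded with Fluo4-AM (2 μM) plus probenecid (0.1 mM) for 1 h, then washed. Antagonism read as inhibition of the orexin A calcium fluorescence signal (FLIPR).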
# [2] = target: T2, human orexin 1 receptors (Homo sapiens (Human), UniProt O43613); test: Radioligand Binding Assay II ([3H]-SB649868 competition, cell membranes); details: read-out: binding II hOx1R Kd
# Protocol: (§1) Radioligand Binding Assay II
# (§2) For crude cell membrane preparations, cells (CHO, Chinese hamster ovary or HEK, human embryonic kidney) expressing human orexin 1 or human orexin 2 receptors, were washed with HEPES (10 mM, pH 7.5), scraped off the culture plates with the same buffer, and centrifuged at 4° C. for 5 min at 2500×g. The cell pellet was either stored at −80° C. or used directly. Before the experiments, cell membranes were re-suspended in binding assay buffer (10 mM HEPES, 0.5% (w/v) bovine serum albumin, pH 7.5) by homogenisation with a Polytron homogeniser at 50 Hz for 20 s. Cell membranes were also used as made available by commercial providers.
# (§3) Bound radioactivity was measured, and data were analysed with the program XLFIT or Graphpad Prism. Protein concentration was determined according to the Bradford/BioRad Protein Assay Kit.
# (§4) In competition experiments, cell homogenates (150 μl) were incubated in assay buffer (10 mM HEPES, pH 7.5, 0.5% (w/v) bovine serum albumin, 5 mM MgCl2, 1 mM CaCl2, and tween 0.05%) for 1 h at room temperature with about 1 nM of the radioligand [^3H]-SB649868, 66 Ci/mmole, 50 μl), and with various concentrations of compounds of the invention (50 μl) in triplicates; non-specific binding was determined in the presence of almorexant (10 μM). Reactions were terminated by vacuum filtration, 3 washes of ice cold wash buffer (Tris-HCl pH 7.4/10 mM, with NaCl 154 mM). Competition data is expressed in Table 2 as Kd [μM].
# [3] = target: T2, human orexin 1 receptors; test: Calcium Accumulation in Cells (FLIPR), antagonism of orexin A; assay type: cell-based; details: antagonism of orexin A, Cheng-Prusoff corrected; read-out: FLIPR hOx1R Ki
# [4] = target: T1, human orexin 2 receptors; test: Radioligand Binding Assay II ([3H]-SB649868 competition, cell membranes); details: read-out: binding II hOx2R Kd
# Protocol: as §1, §2, §3
# as §4, with “mM).” for “mM). Competition data is expressed in Table 2 as Kd [μM].”
# T1 sequence (O43614 whole entry): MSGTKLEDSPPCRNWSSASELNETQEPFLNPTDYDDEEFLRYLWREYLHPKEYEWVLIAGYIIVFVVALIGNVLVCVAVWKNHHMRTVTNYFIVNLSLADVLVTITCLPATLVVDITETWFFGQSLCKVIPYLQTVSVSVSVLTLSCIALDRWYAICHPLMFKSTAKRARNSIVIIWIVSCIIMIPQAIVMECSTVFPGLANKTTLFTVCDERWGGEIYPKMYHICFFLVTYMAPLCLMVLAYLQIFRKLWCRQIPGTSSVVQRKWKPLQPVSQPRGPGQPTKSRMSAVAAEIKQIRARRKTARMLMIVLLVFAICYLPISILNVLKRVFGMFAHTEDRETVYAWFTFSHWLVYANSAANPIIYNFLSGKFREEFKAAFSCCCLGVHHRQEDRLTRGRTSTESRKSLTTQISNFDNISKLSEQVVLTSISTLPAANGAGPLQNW
# T2 sequence (O43613 whole entry): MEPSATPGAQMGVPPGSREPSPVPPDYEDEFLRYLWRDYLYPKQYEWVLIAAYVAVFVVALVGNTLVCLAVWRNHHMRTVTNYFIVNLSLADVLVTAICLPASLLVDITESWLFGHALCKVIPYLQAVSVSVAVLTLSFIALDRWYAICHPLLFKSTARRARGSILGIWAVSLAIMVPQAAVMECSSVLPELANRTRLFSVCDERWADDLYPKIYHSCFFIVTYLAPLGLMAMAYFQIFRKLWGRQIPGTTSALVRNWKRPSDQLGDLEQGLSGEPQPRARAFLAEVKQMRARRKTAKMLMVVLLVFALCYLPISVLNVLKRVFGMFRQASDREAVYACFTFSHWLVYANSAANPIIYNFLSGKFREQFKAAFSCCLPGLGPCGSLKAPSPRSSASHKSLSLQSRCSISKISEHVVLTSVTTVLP
SMILES,Ki [1] [µM],Kd [2] [µM],Ki [3] [µM],Kd [4] [µM]
"Cc1ccc([C@H](C)NC(=O)COc2cc(C)c3c(-c4cnn(C)c4)nn(C)c3n2)cc1 [Example 4.6, (S)-2-(1,4-dimethyl-3-(1-methyl-1H-pyrazol-4-yl)-1H-pyrazolo[3,4-b]pyridin-6-yloxy)-N-(1-p-tolylethyl)acetamide]",0.089,0.076,0.247,0.082
"Cc1ccc([C@H](C)NC(=O)COc2cc(C)c3c(-c4ncccn4)nn(C)c3n2)cc1 [Example 4.7, (S)-2-(1,4-dimethyl-3-(pyrimidin-2-yl)-1H-pyrazolo[3,4-b]pyridin-6-yloxy)-N-(1-p-tolylethyl)acetamide]",0.009,0.011,0.004,0.013
"Cc1ccc([C@H](C)NC(=O)COc2cc(C)c3c(-c4cnccn4)nn(C)c3n2)cc1 [Example 4.8, (S)-2-(1,4-dimethyl-3-(pyrazin-2-yl)-1H-pyrazolo[3,4-b]pyridin-6-yloxy)-N-(1-p-tolylethyl)acetamide]",0.015,0.02,0.052,0.022
"Cc1ccc([C@H](C)NC(=O)COc2cc(C)c3c(-c4ccc(C)cn4)nn(C)c3n2)cc1 [Example 4.9, (S)-2-(1,4-dimethyl-3-(5-methylpyridin-2-yl)-1H-pyrazolo[3,4-b]pyridin-6-yloxy)-N-(1-p-tolylethyl)acetamide]",0.005,0.014,0.012,0.019
"Cc1ccc([C@H](C)NC(=O)COc2cc(C)c3c(-c4cscn4)nn(C)c3n2)cc1 [Example 4.10, (S)-2-(1,4-dimethyl-3-(thiazol-4-yl)-1H-pyrazolo[3,4-b]pyridin-6-yloxy)-N-(1-p-tolylethyl)acetamide]",0.005,0.005,0.005,0.006
"Cc1ccc([C@H](C)NC(=O)COc2cc(C)c3c(-c4nc(C)cs4)nn(C)c3n2)cc1 [Example 5.1, (S)-2-((1,4-dimethyl-3-(4-methylthiazol-2-yl)-1H-pyrazolo[3,4-b]pyridin-6-yl)oxy)-N-(1-(p-tolyl)ethyl)acetamide]",0.01,0.004,0.01,0.003
"Cc1ccc([C@H](C)NC(=O)COc2cc(C)c3c(-c4nccs4)nn(C)c3n2)cc1 [Example 5.2, (S)-2-(1,4-dimethyl-3-(thiazol-2-yl)-1H-pyrazolo[3,4-b]pyridin-6-yloxy)-N-(1-p-tolylethyl)acetamide]",0.001,0.003,0.006,0.003
"COc1ccnc(-c2nn(C)c3nc(OCC(=O)N[C@@H](C)c4ccc(C)cc4)cc(C)c23)n1 [Example 5.3, (S)-2-(3-(4-methoxypyrimidin-2-yl)-1,4-dimethyl-1H-pyrazolo[3,4-b]pyridin-6-yloxy)-N-(1-p-tolylethyl)acetamide]",0.039,0.007,0.01,0.019
"Cc1ccc([C@H](C)NC(=O)COc2cc(C)c3c(-c4cncs4)nn(C)c3n2)cc1 [Example 5.4, (S)-2-(1,4-dimethyl-3-(thiazol-5-yl)-1H-pyrazolo[3,4-b]pyridin-6-yloxy)-N-(1-p-tolylethyl)acetamide]",0.011,0.046,0.179,0.026
"COc1nc(-c2nn(C)c3nc(OCC(=O)N[C@@H](C)c4ccc(C)cc4)cc(C)c23)cs1 [Example 5.5, (S)-2-(3-(2-methoxythiazol-4-yl)-1,4-dimethyl-1H-pyrazolo[3,4-b]pyridin-6-yloxy)-N-(1-p-tolylethyl)acetamide]",0.028,0.015,0.021,0.037
"Cc1ccc([C@H](C)NC(=O)COc2cc(C)c3c(-c4ncc(C)s4)nn(C)c3n2)cc1 [Example 5.6, (S)-2-(1,4-dimethyl-3-(5-methylthiazol-2-yl)-1H-pyrazolo[3,4-b]pyridin-6-yloxy)-N-(1-p-tolylethyl)acetamide]",0.005,0.004,0.006,0.003
"Cc1ccc([C@H](C)NC(=O)COc2cc(C)c3c(-c4cccc(C)n4)nn(C)c3n2)cc1 [Example 5.7, (S)-2-(1,4-dimethyl-3-(6-methylpyridin-2-yl)-1H-pyrazolo[3,4-b]pyridin-6-yloxy)-N-(1-p-tolylethyl)acetamide]",0.056,0.01,0.046,0.021
"Cc1ccc2c(n1)CC[C@@H]2NC(=O)COc1cc(C(F)F)c2c(C3CC3)nn(C)c2n1 [Example 6.2, (S)-2-(3-cyclopropyl-4-(difluoromethyl)-1-methyl-1H-pyrazolo[3,4-b]pyridin-6-yloxy)-N-(2-methyl-6,7-dihydro-5H-cyclopenta[b]pyridin-5-yl)acetamide]",0.05,0.061,0.284,0.075
"Cc1ccc(C(C)(C)NC(=O)COc2cc(C)c3c(C4CC4)nn(C)c3n2)cc1 [Example 6.6, 2-(3-cyclopropyl-1,4-dimethyl-1H-pyrazolo[3,4-b]pyridin-6-yloxy)-N-(2-p-tolylpropan-2-yl)acetamide]",0.047,1.01,0.606,0.138
"COc1ccc([C@H](C)NC(=O)COc2cc(C(F)F)c3c(C4CC4)nn(C)c3n2)cc1 [Example 6.7, (S)-2-(3-cyclopropyl-4-(difluoromethyl)-1-methyl-1H-pyrazolo[3,4-b]pyridin-6-yloxy)-N-(1-(4-methoxyphenyl)ethyl)acetamide]",0.021,0.036,0.068,0.027
"Cc1ccc([C@H](C)NC(=O)COc2cc(C(F)F)c3c(C4CC4)nn(C)c3n2)cc1 [Example 6.8, (S)-2-(3-cyclopropyl-4-(difluoromethyl)-1-methyl-1H-pyrazolo[3,4-b]pyridin-6-yloxy)-N-(1-p-tolylethyl)acetamide]",0.005,0.022,0.014,0.019
"Cc1ccc([C@H](C)NC(=O)COc2cc(C(F)(F)F)c3c(C4CC4)nn(C)c3n2)cc1 [Example 6.13, (S)-2-(3-cyclopropyl-1-methyl-4-(trifluoromethyl)-1H-pyrazolo[3,4-b]pyridin-6-yloxy)-N-(1-p-tolylethyl)acetamide]",0.006,0.044,0.052,0.014
"COc1ccc(C(C)NC(=O)COc2cc(C(F)(F)F)c3c(C4CC4)nn(C)c3n2)cn1 (stereo not shown) [Example 6.14, 2-(3-cyclopropyl-1-methyl-4-(trifluoromethyl)-1H-pyrazolo[3,4-b]pyridin-6-yloxy)-N-(1-(6-methoxypyridin-3-yl)ethyl)acetamide]",0.072,0.428,0.523,0.141
"COc1ccc([C@H](C)NC(=O)COc2cc(C(F)(F)F)c3c(C4CC4)nn(C)c3n2)cc1 [Example 6.15, (S)-2-(3-cyclopropyl-1-methyl-4-(trifluoromethyl)-1H-pyrazolo[3,4-b]pyridin-6-yloxy)-N-(1-(4-methoxyphenyl)ethyl)acetamide]",0.012,0.146,0.16,0.037
